PubChem BioAssay (NCI)
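A five-concentration, 48-hour dose response in 96-well plates underlies each endpoint, interpolated linearly between surrounding concentrations. TGI marks complete inhibition of growth.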

Assays:
Assay in all cases: growth of human tumour cells (NCI), 48 h
DMS 114 small cell lung = test system: DMS 114 small cell lung
M14 melanoma = test system: M14 melanoma
OVCAR-8 ovarian = test system: OVCAR-8 ovarian
786-0 renal = test system: 786-0 renal
ACHN renal = test system: ACHN renal
SF-539 CNS = test system: SF-539 CNS
CCRF-CEM leukemia = test system: CCRF-CEM leukemia
HCT-15 colon = test system: HCT-15 colon
HOP-92 NSCLC = test system: HOP-92 NSCLC
SK-OV-3 ovarian = test system: SK-OV-3 ovarian
SK-MEL-28 melanoma = test system: SK-MEL-28 melanoma
SNB-19 CNS = test system: SNB-19 CNS
SK-MEL-5 melanoma = test system: SK-MEL-5 melanoma
OVCAR-5 ovarian = test system: OVCAR-5 ovarian
NCI-H23 lung = test system: NCI-H23 lung
KM12 colon = test system: KM12 colon
SF-268 CNS = test system: SF-268 CNS
NCI-H522 lung = test system: NCI-H522 lung
OVCAR-3 ovarian = test system: OVCAR-3 ovarian

Measured: TGI

O=C1CCCCC1C1(O)C(=O)Nc2cc(F)ccc21 (stereo unspecified)
not listed: OVCAR-3 ovarian
> 100 µM: all other assays above

COc1ccc(NC(=O)CSc2nnc(Cc3ccccc3)o2)cc1
not listed: HOP-92 NSCLC
> 100 µM: all other assays above
